Positions of bridges follow the written chain, without caps; N, C: chain ends. Non-standard residues stand in square brackets, D forms with d. Residues, ends and D or L forms follow the SMILES beside them. 1Nal = N[C@@H](Cc1cccc2ccccc12)C(=O)O; 4Pal = N[C@@H](Cc1ccncc1)C(=O)O; Tic = O=C(O)[C@@H]1Cc2ccccc2CN1; 3Thi = N[C@@H](Cc1ccsc1)C(=O)O
Tests used:
HIV-1 NL4-3 DTV = conditions: read-out: IC50 DTV, P4-CCR5 cells, peptide 2 h before infection, readout three days after infection
Description: (§1) These cells contain the β-galactosidase reporter gene under the control of the HIV-1 promoter. Thus, activation of the β-galactosidase reporter gene allows to measure the efficiency of HIV-1 infection and thus to quantitate the potency of HIV-1 inhibitors (Detheux M. et al., 2000; Journal of Experimental Medicine 192, 1501-1508; Münch et al., 2002; Antimicrobial Agents and Chemotherapy 46, 982-990).
(§2) To perform a typical infection assay, P4-CCR5 cells (Charneau et al., 1994; Journal of Molecular Biology 241, 651-662; Charneau et al., Virology. 1994 205, 247-53) were kept in RPMI 1640 medium supplemented with 10 volume % FCS. This cell line coexpresses CD4 and both HIV-1 coreceptors CCR5 and CXCR4 and contains the β-galactosidase gene under the control of the HIV-1 promoter. Virus stocks were generated by the calcium coprecipitation method as described (Detheux et al., J Exp Med. 192:1501-8; 2000), and the p24 antigen levels were quantitated with an HIV p24 ELISA kit obtained through the NIH AIDS Reagent Program. Cells were seeded in flat-bottomed 96-well dishes, cultured overnight, and incubated with the different doses of peptide for 2 h before infection with virus containing 1 ng of p24 antigen in a total volume of […] of medium. After overnight incubation, cells were washed twice and cultivated in fresh culture medium without inhibitory peptide. Three days after infection the cells were lysed, and infectivity was quantitated using the Galacto-Light Plus™ chemiluminescence reporter assay kit (Tropix, Bedford, Mass.) as recommended by the manufacturer. All infections were performed in quintuplicate.

X4-tropic HIV-1 NL4-3 = conditions: for IC50: read-out: IC50 NL4-3, P4-CCR5 cells, HIV-1 NL4-3, peptide 2 h before infection, readout three days after infection
Description: as §1, §2

| SMILES | IC50 (HIV-1 NL4-3 DTV) | IC50 (X4-tropic HIV-1 NL4-3) | increase in anti-HIV activity in comparison to VIRIP (X4-tropic HIV-1 NL4-3; from IC50 against two HIV-1 strains (NL4-3, DTV)) |
| --- | --- | --- | --- |
| CC[C@H](C)[C@H](NC(=O)[C@H](C)NC(=O)[C@H](CCC(=O)O)NC(=O)[C@@H](N)CC(C)C)C(=O)N1CCC[C@H]1C(=O)N[C@@H](CCSC)C(=O)N[C@@H](CO)C(=O)N[C@H](C(=O)N1CCC[C@H]1C(=O)N1CCC[C@@H]1C(=O)N[C@@H](CCC(=O)O)C(=O)N[C@H](C(=O)N[C@@H](Cc1ccsc1)C(=O)N[C@@H](Cc1ccccc1)C(=O)N[C@@H](CC(N)=O)C(=O)N[C@@H](CCCCN)C(=O)N1CCC[C@H]1C(=O)N[C@@H](Cc1ccccc1)C(=O)N[C@H](C(=O)N[C@@H](Cc1ccccc1)C(=O)O)C(C)C)C(C)C)[C@@H](C)CC [VIR-265, LEAIPMSIPpEV(3-thienylalanine)FNKPFVF] (H-LEAIPMSIP[dP]EV[3Thi]FNKPFVF-OH) | 2210 nM | 1290 nM | – |
| CC[C@H](C)[C@H](NC(=O)[C@H](C)NC(=O)[C@H](CCC(=O)O)NC(=O)[C@@H](N)CC(C)C)C(=O)N1CCC[C@H]1C(=O)N[C@@H](CCSC)C(=O)N[C@@H](CO)C(=O)N[C@H](C(=O)N1CCC[C@H]1C(=O)N1CCC[C@@H]1C(=O)N[C@@H](CCC(=O)O)C(=O)N[C@H](C(=O)N[C@@H](C)C(=O)N[C@@H](Cc1ccccc1)C(=O)N[C@@H](CC(N)=O)C(=O)N[C@@H](CCCCN)C(=O)N1Cc2ccccc2C[C@H]1C(=O)N[C@@H](Cc1ccccc1)C(=O)N[C@H](C(=O)N[C@@H](Cc1ccccc1)C(=O)O)C(C)C)C(C)C)[C@@H](C)CC [VIR-268, LEAIPMSIPpEVAFNK(L-Tic)FVF] (H-LEAIPMSIP[dP]EVAFNK[Tic]FVF-OH) | 1480 nM | 1730 nM | – |
| CC[C@H](C)[C@H](NC(=O)[C@H](C)NC(=O)[C@H](CCC(=O)O)NC(=O)[C@@H](N)CC(C)C)C(=O)N1CCC[C@H]1C(=O)N[C@@H](CCSC)C(=O)N[C@@H](CO)C(=O)N[C@H](C(=O)N1CCC[C@H]1C(=O)N1CCC[C@@H]1C(=O)N[C@@H](CCC(=O)O)C(=O)N[C@@H](Cc1ccccc1)C(=O)N[C@@H](C)C(=O)N[C@@H](Cc1ccccc1)C(=O)N[C@@H](CC(N)=O)C(=O)N[C@@H](CCCCN)C(=O)N1CCC[C@H]1C(=O)N[C@@H](Cc1ccccc1)C(=O)N[C@H](C(=O)N[C@@H](Cc1ccccc1)C(=O)O)C(C)C)[C@@H](C)CC [VIR-193, LEAIPMSIPpEFAFNKPFVF] (H-LEAIPMSIP[dP]EFAFNKPFVF-OH) | 1380 nM | 1740 nM | – |
| CC[C@H](C)[C@H](NC(=O)[C@H](C)NC(=O)[C@H](CCC(=O)O)NC(=O)[C@@H](N)CC(C)C)C(=O)N1CCC[C@H]1C(=O)N[C@@H](CCSC)C(=O)N[C@@H](CO)C(=O)N[C@H](C(=O)N1CCC[C@H]1C(=O)N1CCC[C@@H]1C(=O)N[C@@H](CCC(=O)O)C(=O)N[C@H](C(=O)N[C@@H](Cc1ccncc1)C(=O)N[C@@H](Cc1ccccc1)C(=O)N[C@@H](CC(N)=O)C(=O)N[C@@H](CCCCN)C(=O)N1CCC[C@H]1C(=O)N[C@@H](Cc1ccccc1)C(=O)N[C@H](C(=O)N[C@@H](Cc1ccccc1)C(=O)O)C(C)C)C(C)C)[C@@H](C)CC [VIR-260, LEAIPMSIPpEV(4-pyridylalanine)FNKPFVF] (H-LEAIPMSIP[dP]EV[4Pal]FNKPFVF-OH) | 2380 nM | 2150 nM | – |
| CC[C@H](C)[C@H](NC(=O)[C@H](C)NC(=O)[C@H](CCC(=O)O)NC(=O)[C@@H](N)CC(C)C)C(=O)N1CCC[C@H]1C(=O)N[C@H]1CSSC[C@@H](C(=O)N[C@H](C(=O)N[C@@H](CC(C)C)C(=O)N[C@@H](Cc2ccccc2)C(=O)N[C@@H](CC(N)=O)C(=O)N[C@@H](CCCCN)C(=O)N2CCC[C@H]2C(=O)N[C@@H](Cc2ccccc2)C(=O)N[C@H](C(=O)N[C@@H](Cc2ccccc2)C(=O)O)C(C)C)C(C)C)NC(=O)[C@@H]2CCCN2C(=O)[C@@H]2CCCN2C(=O)[C@H]([C@@H](C)CC)NC(=O)[C@H](CO)NC1=O [VIR-163] (H-LEAIPCSIPPCVLFNKPFVF-OH; disulfide 6-11) | 290 nM | 760 nM | – |
| CC[C@H](C)[C@H](NC(=O)[C@H](C)NC(=O)[C@H](CCC(=O)O)NC(=O)[C@@H](N)CC(C)C)C(=O)N1CCC[C@H]1C(=O)N[C@@H](CCSC)C(=O)N[C@@H](CO)C(=O)N[C@H](C(=O)N1CCC[C@H]1C(=O)N1CCC[C@@H]1C(=O)N[C@@H](CCC(=O)O)C(=O)N[C@H](C(=O)N1Cc2ccccc2C[C@H]1C(=O)N[C@@H](Cc1ccccc1)C(=O)N[C@@H](CC(N)=O)C(=O)N[C@@H](CCCCN)C(=O)N1CCC[C@H]1C(=O)N[C@@H](Cc1ccccc1)C(=O)N[C@H](C(=O)N[C@@H](Cc1ccccc1)C(=O)O)C(C)C)C(C)C)[C@@H](C)CC [VIR-263, LEAIPMSIPpEV(L-Tic)FNKPFVF] (H-LEAIPMSIP[dP]EV[Tic]FNKPFVF-OH) | 330 nM | 770 nM | – |
| CC[C@H](C)[C@H](NC(=O)[C@H](C)NC(=O)[C@H](CCC(=O)O)NC(=O)[C@@H](N)CC(C)C)C(=O)N1CCC[C@H]1C(=O)N[C@@H](CCSC)C(=O)N[C@@H](CO)C(=O)N[C@H](C(=O)N1CCC[C@H]1C(=O)N1CCC[C@@H]1C(=O)N[C@@H](CCC(=O)O)C(=O)N[C@@H](Cc1cccc2ccccc12)C(=O)N[C@@H](C)C(=O)N[C@@H](Cc1ccccc1)C(=O)N[C@@H](CC(N)=O)C(=O)N[C@@H](CCCCN)C(=O)N1CCC[C@H]1C(=O)N[C@@H](Cc1ccccc1)C(=O)N[C@H](C(=O)N[C@@H](Cc1ccccc1)C(=O)O)C(C)C)[C@@H](C)CC [VIR-258, LEAIPMSIPpE(1-naphthylalanine)AFNKPFVF] (H-LEAIPMSIP[dP]E[1Nal]AFNKPFVF-OH) | 620 nM | 640 nM | – |
| CC[C@H](C)[C@H](NC(=O)[C@H](C)NC(=O)[C@H](CCC(=O)O)NC(=O)[C@@H](N)CC(C)C)C(=O)N1CCC[C@H]1C(=O)N[C@@H](CCSC)C(=O)N[C@@H](CO)C(=O)N[C@H](C(=O)N1CCC[C@H]1C(=O)N1CCC[C@@H]1C(=O)N[C@@H](CCC(=O)O)C(=O)N[C@@H](Cc1ccccc1)C(=O)N[C@@H](CC(C)C)C(=O)N[C@@H](Cc1ccccc1)C(=O)N[C@@H](CC(N)=O)C(=O)N[C@@H](CCCCN)C(=O)N1CCC[C@H]1C(=O)N[C@@H](Cc1ccccc1)C(=O)N[C@H](C(=O)N[C@@H](Cc1ccccc1)C(=O)O)C(C)C)[C@@H](C)CC [VIR-199, LEAIPMSIPpEFLFNKPFVF] (H-LEAIPMSIP[dP]EFLFNKPFVF-OH) | 1650 nM | 2140 nM | – |
| CC[C@H](C)[C@H](NC(=O)[C@H](C)NC(=O)[C@H](CCC(=O)O)NC(=O)[C@@H](N)CC(C)C)C(=O)N1CCC[C@H]1C(=O)N[C@H]1CSSC[C@@H](C(=O)N[C@@H](Cc2ccccc2)C(=O)N[C@@H](CC(C)C)C(=O)N[C@@H](Cc2ccccc2)C(=O)NCC(=O)N[C@@H](CCCCN)C(=O)N2CCC[C@H]2C(=O)N[C@@H](Cc2ccccc2)C(=O)N[C@H](C(=O)N[C@@H](Cc2ccccc2)C(=O)O)C(C)C)NC(=O)[C@@H]2CCCN2C(=O)[C@@H]2CCCN2C(=O)[C@H]([C@@H](C)CC)NC(=O)[C@H](CO)NC1=O [VIR-280] (H-LEAIPCSIPPCFLFGKPFVF-OH; disulfide 6-11) | – | – | 161 fold |
| CC[C@H](C)[C@H](NC(=O)[C@H](C)NC(=O)[C@H](CCC(=O)O)NC(=O)[C@@H](N)CC(C)C)C(=O)N1CCC[C@H]1C(=O)N[C@@H](CCSC)C(=O)NCC(=O)N[C@H](C(=O)N1CCC[C@H]1C(=O)N1CCC[C@@H]1C(=O)N[C@@H](CCC(=O)O)C(=O)N[C@H](C(=O)N[C@@H](Cc1ccccc1)C(=O)N[C@@H](Cc1ccccc1)C(=O)NCC(=O)N[C@@H](CCCCN)C(=O)N1CCC[C@H]1C(=O)N[C@@H](Cc1ccccc1)C(=O)N[C@H](C(=O)N[C@@H](Cc1ccccc1)C(=O)O)C(C)C)C(C)C)[C@@H](C)CC [VIR-320, LEAIPMGIPpEVFFGKPFVF] (H-LEAIPMGIP[dP]EVFFGKPFVF-OH) | – | 277 nM | – |
| CC[C@H](C)[C@H](NC(=O)[C@H](C)NC(=O)[C@H](CCC(=O)O)NC(=O)[C@@H](N)CC(C)C)C(=O)N1CCC[C@H]1C(=O)N[C@@H](CCSC)C(=O)N[C@@H](CO)C(=O)N[C@H](C(=O)N1CCC[C@H]1C(=O)N1CCC[C@@H]1C(=O)N[C@@H](CCC(=O)O)C(=O)N[C@@H](Cc1ccccc1)C(=O)N[C@@H](CC(C)C)C(=O)N[C@@H](Cc1ccccc1)C(=O)NCC(=O)N[C@@H](CCCCN)C(=O)N1CCC[C@H]1C(=O)NCC(=O)N[C@@H](Cc1ccccc1)C(=O)N[C@H](C(=O)N[C@@H](Cc1ccccc1)C(=O)O)C(C)C)[C@@H](C)CC [VIR-377, LEAIPMSIPpEFLFGKPGFVF] (H-LEAIPMSIP[dP]EFLFGKPGFVF-OH) | – | 487 nM | – |
| CC[C@H](C)[C@H](NC(=O)[C@@H]1CCCN1C(=O)[C@@H](NC(=O)[C@H](C)NC(=O)[C@H](CCC(=O)O)NC(=O)[C@@H](N)CC(C)C)[C@@H](C)CC)C(=O)N[C@@H](CO)C(=O)N[C@H](C(=O)N1CCC[C@H]1C(=O)N1CCC[C@@H]1C(=O)N[C@@H](CCC(=O)O)C(=O)N[C@H](C(=O)N[C@@H](Cc1ccccc1)C(=O)N[C@@H](Cc1ccccc1)C(=O)NCC(=O)N[C@@H](CCCCN)C(=O)N1CCC[C@H]1C(=O)N[C@@H](Cc1ccccc1)C(=O)N[C@H](C(=O)N[C@@H](Cc1ccccc1)C(=O)O)C(C)C)C(C)C)[C@@H](C)CC [VIR-290, LEAIPISIPpEVFFGKPFVF] (H-LEAIPISIP[dP]EVFFGKPFVF-OH) | – | 562 nM | – |
